Results reported in patent US20240026261A1, “ENGINEERING OF ORGANOID CULTURE FOR ENHANCED ORGANOGENESIS IN A DISH” (THE TRUSTEES OF THE UNIVERSITY OF PENNSYLVANIA, priority 2020, published 2024).

Experiments:
Format in all cases: cell-based, mouse
[1] = test system: co-culture of intestinal organoids and primary intestinal fibroblasts (αSMA); assay: TGF-β-induced intestinal fibrosis model in OCTOPUS, αSMA immunofluorescence (fibroblast activation); details: for increase in level of αSMA expression in comparison to untreated tissues: TGF-β 1 ng/ml from day 5
Description: To this end, OCTOPUS was used to set up a co-culture of intestinal organoids and primary intestinal fibroblasts in the same hydrogel scaffold and generate a multicellular construct reminiscent of the intestinal epithelium and its underlying stroma in vivo (FIG. 6A). In this mixed co-culture configuration, the intestinal progenitor cells embedded in Matrigel developed into or-ganoids over the course of 5 days or so, during which fibroblasts began to spread and proliferate around the nascent organoids. […] Prolonged culture in this device led to the formation of microtissues densely populated with enlarged organoids and fibroblasts (FIG. 6C).
(§1) To simulate the scenario of using this system to assess intestinal fibrosis in a conventional laboratory setting, a common technique widely used for in vitro modeling of fibrosis, which was to treat the co-culture construct with transforming growth factor (TGF)-β, were used. TGF-β plays a central role in the pathogenesis of fibrosis in the intestine and other organs by inducing the activation of fibroblasts and their transdifferentiation into myofibroblasts, which are the key effector cells that drive fibrogenesis. To trigger fibrogenic responses, the model was treated with TGF-β at 1 ng/ml from day 5 to day 12. Exposure of the intestinal microtissue to this condition indeed caused the fibroblasts to acquire the contractile phenotype of myofibroblasts, as evidenced by robust expression of alpha-smooth muscle actin (αSMA) (FIG. 6D). In comparison to untreated tissues, the level of expression increased by more than 1.9- and 2.9-fold by day 8 and day 12, respectively (FIG. 6E).
(§2) First, fibrotic intestinal tissue constructs in OCTOPUS were generated by forming co-culture organoids over 5 days and exposing them to TGF-β for another 7 days as described above (day 5-day 12). These constructs were then treated with clinically relevant concentrations of the drugs for 48 hours (day 13-day 14) within the therapeutic window identified by viability assessment (data not shown). […] At 0.1 mM, Pirfenidone was effective for altering the contractile phenotype of fibroblasts, as illustrated by 50% reduction in αSMA compared to the untreated control (FIGS. 6L to 6O).
(§3) To form an intestinal fibrosis model suitable for, e.g. drug testing, in OCTOPUS, mouse intestinal stem cells were mixed with 1×10^6 cells/ml of mouse intestinal fibroblasts in Matrigel (356255, Corning, USA). This cell-containing hydrogel solution was injected into the device to form microtissue constructs in the organoid culture chambers. After gelation for 15 minutes in a regular cell culture incubator, 750 μl of IntestiCult™ organoid growth medium (06005, STEMCELL Technologies, Canada) was added into each well and maintained for 5 days to induce intestinal organoid development and fibroblast proliferation. During this period, the media were replenished every other day. To induce fibrosis, 1 ng/ml of TGF-β (T5050, Sigma, USA) was added to the culture wells on day 5 and maintained for additional 7 days. Drug administration occurred on day 12 using commercially available Pirfenidone (P1871, TCI America, USA) and Nintedanib (S1010, Selleckchem, USA) at specified concentrations. The fibrosis model was treated with drugs for 48 hours, after which changes in its fibrotic phenotype were analyzed using the methods described herein.
(§4) For immunofluorescence staining, cells in OCTOPUS were washed with PBS twice, fixed with 4% paraformaldehyde (Electron Microscopy Sciences, USA) for 15 minutes at room temperature, and washed again twice with PBS. The cells were then permeabilized with 0.1% Triton X-100 (Sigma) in PBS for 3 minutes and exposed to blocking buffer composed of PBS and 3% bovine serum albumin (BSA; Sigma) for overnight at 4° C. […]

[2] = test system: co-culture of intestinal organoids and primary intestinal fibroblasts (fibronectin); assay: Intestinal fibrosis model in OCTOPUS, fibronectin (FN) deposition by immunofluorescence
Description: (§5) The difference between the two groups became evident within 3 days of treatment and remained statistically significant throughout the culture period (FIG. 6I). […] Consistent with the analysis of fibroblast activation and proliferation (FIG. 6E, FIG. 6F), from the comparison between co-culture and monoculture models, intestinal organoids potentiate the fibrogenic effect of TGF-β and promote FN production by fibroblasts (FIG. 6I, FIG. 6J) were identified.
as §2, §3, §4

[3] = test system: co-culture of intestinal organoids and primary intestinal fibroblasts (released fibronectin); assay: Intestinal fibrosis model in OCTOPUS, released fibronectin by ELISA of conditioned media
Description: as §5, §2
For the analysis of fibronectin production in the intestinal fibrosis model, a mouse fibronectin ELISA kit (ab108849, abcam, USA) was used. The media in the wells were collected at specified time points and assayed using manufacturer-provided protocols. First, 50 μl of standard or device-collected samples were added into each well and incubated for 2 hours at room temperature. Subsequently, the wells were washed 5 times with 300 μl of wash buffer solution and then incubated with fibronectin antibody for 1 hour. […]
For all ELISA assays, a multimode plate reader (M200, Tecan, Switzerland) was used to measure the optical density of samples. […]
(§6) To form an intestinal fibrosis model suitable for, e.g. drug testing, in OCTOPUS, mouse intestinal stem cells were mixed with 1×10^6 cells/ml of mouse intestinal fibroblasts in Matrigel (356255, Corning, USA). […] The fibrosis model was treated with drugs for 48 hours, after which changes in its fibrotic phenotype were analyzed using the methods described herein.

[4] = test system: co-culture microtissues of intestinal organoids and fibroblasts; assay: Intestinal fibrosis model in OCTOPUS, tissue stiffness by atomic force microscopy; details: for stiffness of the TGF-β-treated fibrotic tissues (AFM): administered at higher doses
Experimental: To further validate the fibrotic phenotype of the model, the stiffness of the TGF-β-treated microtissues was measured by using atomic force microscopy (AFM). This measurement was greatly facilitated by the open-top design of OCTOPUS that allowed direct access of the AFM probe to the tissue constructs in the culture chambers (FIG. 6K). […] As expected, treatment of this model with TGF-01 led to a marked increase in the extent of tissue stiffening and generated co-culture constructs that were 2.9 times stiffer than those in the untreated devices (FIG. 6K).
The average stiffness measured in the fibrosis model treated with 0.5 mM Pirfenidone (3.5 kPa) closely matched that of normal tissue constructs (3.3 kPa), illustrating the potential of Pirfenidone to normalize the mechanical property of fibrotic intestinal tissues in the model system.
as §3
Atomic force microscopy (AFM, MFP-3D-BIO, Asylum) was used to measure the stiffness of hydrated microtissues in the intestinal fibrosis models. A gold-coated cantilever (SCONT tip, NANOSENSORS) with a spring constant of 14.58 pN/nm and a pyramid indenter was used to obtain force-indentation curves. The tissue samples in the open chambers were used directly without any modification. For the AFM measurement, the OCTOPUS insert containing microtissue was removed from the plate and mounted on the instrument. After wetting the microtissue with a drop of PBS, its mechanical property was measured with the scanning probe. Young's modulus was calculated from the force indentation data using the Atomic J software.

intestinal organoids = assay: Intracellular calcium imaging (Fluo-4) of intestinal organoids
Experimental: To assess the level of intracellular calcium, the organoids were labeled with a fluorescent calcium indicator dye (Fluo-4) and monitored their fluorescence in real-time. Given the multicellular complexity of organoids, the mean fluorescence intensity was measured from representative organoids selected for analysis. Upon treatment with 100 μM ATP, organoids in the device increased their fluorescence by approximately 1.6-fold within 60 seconds, which was followed by a gradual decrease to the baseline level (FIG. 4E).
For calcium imaging, the organoid media were removed from the culture wells, and the organoid constructs were washed once in live-cell imaging solution (LCIS). The organoids were then loaded with Fluo-4 calcium imaging solution (F10489, ThermoFisher Scientific, USA) prepared according to the manufacturer's protocol. The samples were incubated at 37° C. for 30 minutes, which was followed by another 30-minute incubation at room temperature. Subsequently, the Fluo-4 solution was removed, and the organoids were washed once with LCIS. All samples were kept in fresh LCIS until use. An inverted epi-fluorescence microscope (Axio Observer D1, Zeiss, Germany) was used to visualize calcium staining of organoids upon stimulation with 100 μM of ATP (A1852, Sigma, USA) and 50 mM of glucose (G7021, Sigma, USA).
For ratiometric analysis of changes in Ca2+ levels, fluorescence intensity for each or-ganoid was measured during an experiment, and values were normalized by their resting intensities using the equation below.
ΔCa^2+=(F−Frest)/Frest (1)

[5] = test system: primary intestinal fibroblasts co-cultured with intestinal organoids; assay: Intestinal fibrosis model in OCTOPUS, fibroblast proliferation; details: TGF-β 1 ng/ml from day 5; by day 12
Description: as §1, §6

[6] = 0.5 μM, 48 hours, to levels comparable to Pirfenidone at 0.5 mM
[7] = higher-dose (0.5 mM) treatment, 48 hours

COC(=O)c1ccc2c(c1)NC(=O)/C2=C(\Nc1ccc(N(C)C(=O)CN2CCN(C)CC2)cc1)c1ccccc1 [Nintedanib]
fibroblast activation (αSMA) [1, 6]: decreased substantially | effects on the fibrosis model (αSMA, FN) ([1]; lower dose 0.1 μM, 48 hours): failed to exert significant effects | FN accumulation [2, 6]: decreased substantially | concomitant reduction in the concentration of released FN (ELISA) ([3]; 0.5 μM, 48 hours): not observed | stiffness of the TGF-β-treated fibrotic tissues (AFM) ([4]; 48 hours): significantly decreased

Nc1ncnc2c1ncn2[C@@H]1O[C@H](COP(=O)(O)OP(=O)(O)OP(=O)(O)O)[C@@H](O)[C@H]1O [ATP]
calcium response of the conventional model (Matrigel drop) (intestinal organoids; 100 μM, hydrogel drop culture, versus OCTOPUS): noticeably slower and occurred to a lesser extent | increase in Fluo-4 fluorescence (intracellular calcium) (intestinal organoids; 100 μM, organoids in OCTOPUS, within 60 seconds): approximately 1.6 fold

Cc1ccc(=O)n(-c2ccccc2)c1 [Pirfenidone]
reduction in αSMA compared to the untreated control ([1]; 0.1 mM, 48 hours, TGF-β-induced fibrotic constructs): 50% | expression of αSMA ([1]; dose increased to 0.5 mM, 48 hours): further decreased | level of αSMA expression versus normal group (healthy intestinal tissue) [1, 7]: statistically indistinguishable | immunofluorescence of FN in drug-treated fibrotic constructs ([2]; 48 hours treatment): significantly decreased | level of FN production versus normal group (healthy intestinal tissue) [2, 7]: statistically indistinguishable | amount of FN released from the model (ELISA) ([3]; 48 hours treatment): reduced | average stiffness of the treated fibrosis model ([4]; 0.5 mM, 48 hours, normal tissue constructs 3.3 kPa): 3.5 kPa | stiffness of the TGF-β-treated fibrotic tissues (AFM) ([4]; 48 hours): significantly decreased

O=C[C@H](O)[C@@H](O)[C@H](O)[C@H](O)CO [D-glucose]
increase in intracellular calcium in OCTOPUS (intestinal organoids; 50 mM, organoids in OCTOPUS): greater than that induced by ATP stimulation

transforming growth factor (TGF)-β [TGF-β]
increase in level of αSMA expression in comparison to untreated tissues ([1]; by day 8): more than 1.9 fold | increase in level of αSMA expression in comparison to untreated tissues ([1]; by day 12): > 2.9 fold | fibroblast proliferation, cells compared to the untreated control group [5]: approximately twice as many cells | FN in the pericellular regions of fibroblasts (immunostaining) compared to untreated tissues ([2]; TGF-β 1 ng/ml, day 5 to day 12): substantially increased | released FN (ELISA of conditioned media) ([3]; TGF-β 1 ng/ml, day 5 to day 12): higher levels of released FN | average tissue stiffness ([4]; TGF-β-treated co-culture constructs, AFM): 10.1 kPa | stiffness of co-culture constructs relative to untreated devices ([4]; TGF-β-treated, AFM, 14 days culture): 2.9 times
